# US12564591B2, “HCK as a therapeutic target in MYD88 mutated diseases” (Dana-Farber Cancer Institute, Inc., priority 2019, dated 2026)
# Entries after “also recorded” stand apart in the source; their conditions may differ. Where two headings read alike, the source gives them in different places.
# Assays:
# [1] = system: HCK phosphorylation at Thr^209; details: MYD88 mutated WM and ABC DLBCL cells
# [2] = system: pBTK, pAKT, pERK1/2, and pSYK; experiment: Western blot of downstream signaling in HCK^WT or HCK^T333M transduced BCWM.1 cells; assay type: cell-based
# Description: (§1) An HCK gatekeeper mutant HCK^T333M was generated and rescue experiments performed in MYD88 mutated BCWM.1 cells. Expression of HCK^T333M produced a more than 20-fold increase in resistance to Compound (I) versus vector or wild-type HCK transduced BCWM.1 cells (FIG. 5A).
# [3] = system: BTK and ERK 1/2 phosphorylation; details: vector only, and BTK^WT transduced BCWM.1 or TMD8 cells, 1.0 hour
# [4] = system: kinases in TMD8 ABC DLBCL cells; experiment: KiNativ live-cell target engagement profiling (desthiobiotin-ATP probe); assay type: cell-based
# [5] = Tolerability study, daily oral dosing; assay type: in vivo; details: up to 75 mg/kg daily oral dosing, NOD-SCID mice dosed for >6 weeks, no adverse events observed
# Description: (§2) […]. […] […].
# [6] = Liver microsome stability; assay type: in vitro ADME; details: rat, liver microsomes
# HCK [7] = target: T1, HCK (Homo sapiens, UniProt P08631); experiment: ATP-competitive pulldown assay (desthiobiotin-ATP probe, western blot) in live BCWM.1 and TMD8 cells; assay type: cell-based; design: purchased Life Technologies (SelectScreen); details: live cell pre-treatment
# T1 sequence (P08631 whole entry): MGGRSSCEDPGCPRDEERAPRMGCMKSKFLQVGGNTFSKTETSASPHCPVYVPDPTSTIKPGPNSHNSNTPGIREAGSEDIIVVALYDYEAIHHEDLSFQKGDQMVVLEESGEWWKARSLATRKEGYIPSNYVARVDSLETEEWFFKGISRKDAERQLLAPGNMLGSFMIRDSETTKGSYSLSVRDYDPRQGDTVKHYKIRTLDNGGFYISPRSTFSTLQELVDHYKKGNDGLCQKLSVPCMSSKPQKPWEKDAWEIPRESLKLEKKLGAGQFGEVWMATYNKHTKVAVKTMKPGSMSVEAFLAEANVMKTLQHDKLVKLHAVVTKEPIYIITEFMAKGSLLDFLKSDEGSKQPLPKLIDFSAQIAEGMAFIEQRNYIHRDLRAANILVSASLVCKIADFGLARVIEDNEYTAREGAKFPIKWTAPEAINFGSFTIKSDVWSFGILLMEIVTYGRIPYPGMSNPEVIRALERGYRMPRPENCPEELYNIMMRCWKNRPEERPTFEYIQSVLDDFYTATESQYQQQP
# panel of 464 kinases = experiment: KINOMEscan kinome selectivity profiling (DiscoverX); assay type: binding; details: for S(1) score / S(10) score: 1.0 μM, panel of over 460 kinases
# Description: The compounds were profiled at a concentration of 1.0 μM against a panel of over 460 kinases by DiscoverX.
# CYP2C19 = CYP2C19 (Homo sapiens, UniProt P33261); experiment: In vitro CYP inhibition; assay type: in vitro ADME; design: dose or concentration left out as unconfirmed; details: at 10 PM, read-out: CYP inhibition (2C19)
# Sequence of CYP2C19 (P33261 whole entry): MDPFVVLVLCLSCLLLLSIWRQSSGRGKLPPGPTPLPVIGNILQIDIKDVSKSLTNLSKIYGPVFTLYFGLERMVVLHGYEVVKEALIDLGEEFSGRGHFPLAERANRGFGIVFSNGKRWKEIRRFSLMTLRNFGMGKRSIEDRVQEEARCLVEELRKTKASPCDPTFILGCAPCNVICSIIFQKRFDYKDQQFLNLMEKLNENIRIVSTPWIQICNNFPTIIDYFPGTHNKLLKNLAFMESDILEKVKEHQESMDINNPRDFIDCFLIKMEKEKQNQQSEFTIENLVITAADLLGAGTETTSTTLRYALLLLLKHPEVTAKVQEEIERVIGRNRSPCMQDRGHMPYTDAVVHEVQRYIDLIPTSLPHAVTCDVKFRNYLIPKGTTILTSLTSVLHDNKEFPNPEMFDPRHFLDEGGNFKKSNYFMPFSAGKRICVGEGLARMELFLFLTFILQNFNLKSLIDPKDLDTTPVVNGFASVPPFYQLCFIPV
# Description: as §2
# CYP2D6 = CYP2D6 (Homo sapiens, UniProt P10635); experiment: In vitro CYP inhibition; assay type: in vitro ADME; design: dose or concentration left out as unconfirmed; details: at 10 PM, read-out: CYP inhibition (2D6)
# Sequence of CYP2D6 (P10635 whole entry): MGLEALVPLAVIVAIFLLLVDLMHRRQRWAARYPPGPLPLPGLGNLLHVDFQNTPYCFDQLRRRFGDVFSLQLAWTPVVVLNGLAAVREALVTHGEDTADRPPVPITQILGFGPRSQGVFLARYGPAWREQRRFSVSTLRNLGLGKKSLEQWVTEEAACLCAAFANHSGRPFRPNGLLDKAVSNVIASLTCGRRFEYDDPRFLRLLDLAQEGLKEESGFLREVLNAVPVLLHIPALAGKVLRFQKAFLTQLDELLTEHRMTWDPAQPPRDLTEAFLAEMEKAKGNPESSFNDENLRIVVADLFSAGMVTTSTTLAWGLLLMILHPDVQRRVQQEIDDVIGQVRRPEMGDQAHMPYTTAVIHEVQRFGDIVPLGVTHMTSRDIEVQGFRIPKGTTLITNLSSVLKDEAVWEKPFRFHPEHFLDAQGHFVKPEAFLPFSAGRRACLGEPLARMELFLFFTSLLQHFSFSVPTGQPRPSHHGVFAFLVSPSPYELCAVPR
# Description: as §2
# CYP2C8 = CYP2C8 (Homo sapiens, UniProt P10632); experiment: In vitro CYP inhibition; assay type: in vitro ADME; design: dose or concentration left out as unconfirmed; details: at 10 PM, read-out: CYP inhibition (2C8)
# Description: as §2
# CYP2B6 = CYP2B6 (Homo sapiens, UniProt P20813); experiment: In vitro CYP inhibition; assay type: in vitro ADME; design: dose or concentration left out as unconfirmed; details: at 10 PM, read-out: CYP inhibition (2B6)
# Sequence of CYP2B6 (P20813 whole entry): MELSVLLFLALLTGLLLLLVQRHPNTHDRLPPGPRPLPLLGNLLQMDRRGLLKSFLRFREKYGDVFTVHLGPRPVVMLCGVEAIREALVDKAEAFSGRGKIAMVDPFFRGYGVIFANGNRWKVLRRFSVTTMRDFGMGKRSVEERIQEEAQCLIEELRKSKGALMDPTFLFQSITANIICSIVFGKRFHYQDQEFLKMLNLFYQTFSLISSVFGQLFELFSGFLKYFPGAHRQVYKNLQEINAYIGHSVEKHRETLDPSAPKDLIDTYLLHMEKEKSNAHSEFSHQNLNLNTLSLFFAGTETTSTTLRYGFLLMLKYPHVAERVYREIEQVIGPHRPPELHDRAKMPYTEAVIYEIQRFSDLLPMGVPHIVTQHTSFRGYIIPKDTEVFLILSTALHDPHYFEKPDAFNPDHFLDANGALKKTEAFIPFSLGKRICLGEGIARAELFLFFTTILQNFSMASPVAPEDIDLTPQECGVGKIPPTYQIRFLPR
# Description: as §2
# CYP2C9 = CYP2C9 (Homo sapiens, UniProt P11712); experiment: In vitro CYP inhibition; assay type: in vitro ADME; design: dose or concentration left out as unconfirmed; details: at 10 PM, read-out: CYP inhibition (2C9)
# Sequence of CYP2C9 (P11712 whole entry): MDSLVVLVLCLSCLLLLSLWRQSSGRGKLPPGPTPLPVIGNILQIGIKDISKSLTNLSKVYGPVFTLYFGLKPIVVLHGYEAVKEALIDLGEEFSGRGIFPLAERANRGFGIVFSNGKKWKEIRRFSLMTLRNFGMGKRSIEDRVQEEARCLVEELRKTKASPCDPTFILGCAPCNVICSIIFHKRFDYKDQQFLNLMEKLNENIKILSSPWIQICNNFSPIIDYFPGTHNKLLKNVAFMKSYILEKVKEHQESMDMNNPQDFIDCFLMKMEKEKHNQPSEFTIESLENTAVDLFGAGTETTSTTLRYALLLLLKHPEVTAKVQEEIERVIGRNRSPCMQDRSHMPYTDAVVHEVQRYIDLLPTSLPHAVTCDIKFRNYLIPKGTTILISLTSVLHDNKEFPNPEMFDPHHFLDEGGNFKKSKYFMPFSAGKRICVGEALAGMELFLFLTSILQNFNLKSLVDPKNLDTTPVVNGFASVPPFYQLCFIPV
# Description: as §2
# CYP1A = experiment: In vitro CYP inhibition; assay type: in vitro ADME; design: dose or concentration left out as unconfirmed; details: at 10 PM; read-out: CYP inhibition (1A)
# Description: as §2
# Plasma protein binding = assay type: in vitro ADME
# Description: as §2
# [8] = system: vector, HCK^WT or HCK^T333M transduced MWCL-1 WM cells; experiment: HCK^T333M gatekeeper mutant rescue, dose-response 72 hours; assay type: cell-based
# Description: Dose-responses of vector only or HCK^WT or HCK^T333M transduced MWCL-1 cells following the treatment Compound (I) for 72 hours (FIG. 6A).
# [9] = Liver microsome stability; assay type: in vitro ADME; details: human, liver microsomes
# LYN [10] = target: T2, LYN (Homo sapiens, UniProt P07948); experiment: ATP-competitive pulldown assay (desthiobiotin-ATP probe, western blot) in live BCWM.1 and TMD8 cells; assay type: cell-based; design: endogenous in cells; host or cells: BCWM.1 and TMD8 cells
# T2 sequence (P07948 whole entry): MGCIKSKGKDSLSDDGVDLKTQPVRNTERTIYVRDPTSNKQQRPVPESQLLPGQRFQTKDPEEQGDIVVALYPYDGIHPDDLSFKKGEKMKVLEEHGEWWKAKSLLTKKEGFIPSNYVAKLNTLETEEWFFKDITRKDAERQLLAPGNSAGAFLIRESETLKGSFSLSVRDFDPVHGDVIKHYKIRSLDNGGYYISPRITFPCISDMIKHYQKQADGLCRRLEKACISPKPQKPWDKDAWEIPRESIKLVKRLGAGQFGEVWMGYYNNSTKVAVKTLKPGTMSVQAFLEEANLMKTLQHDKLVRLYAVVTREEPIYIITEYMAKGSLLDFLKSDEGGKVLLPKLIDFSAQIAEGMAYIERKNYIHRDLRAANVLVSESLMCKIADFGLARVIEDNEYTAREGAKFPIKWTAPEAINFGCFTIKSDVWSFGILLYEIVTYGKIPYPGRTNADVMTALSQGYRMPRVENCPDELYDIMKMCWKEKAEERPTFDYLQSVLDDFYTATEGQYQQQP
# [11] = system: vector, HCK^WT or HCK^T333M transduced BCWM.1 cells; experiment: HCK^T333M gatekeeper mutant rescue, dose-response 72 hours; assay type: cell-based; details: versus vector or wild-type HCK transduced BCWM.1 cells
# Description: as §1
# hERG = hERG (Homo sapiens, UniProt Q12809); experiment: hERG testing (patch clamp) for cardiotoxicity; assay type: cell-based; details: at 16 μM
# Sequence of hERG (Q12809 whole entry): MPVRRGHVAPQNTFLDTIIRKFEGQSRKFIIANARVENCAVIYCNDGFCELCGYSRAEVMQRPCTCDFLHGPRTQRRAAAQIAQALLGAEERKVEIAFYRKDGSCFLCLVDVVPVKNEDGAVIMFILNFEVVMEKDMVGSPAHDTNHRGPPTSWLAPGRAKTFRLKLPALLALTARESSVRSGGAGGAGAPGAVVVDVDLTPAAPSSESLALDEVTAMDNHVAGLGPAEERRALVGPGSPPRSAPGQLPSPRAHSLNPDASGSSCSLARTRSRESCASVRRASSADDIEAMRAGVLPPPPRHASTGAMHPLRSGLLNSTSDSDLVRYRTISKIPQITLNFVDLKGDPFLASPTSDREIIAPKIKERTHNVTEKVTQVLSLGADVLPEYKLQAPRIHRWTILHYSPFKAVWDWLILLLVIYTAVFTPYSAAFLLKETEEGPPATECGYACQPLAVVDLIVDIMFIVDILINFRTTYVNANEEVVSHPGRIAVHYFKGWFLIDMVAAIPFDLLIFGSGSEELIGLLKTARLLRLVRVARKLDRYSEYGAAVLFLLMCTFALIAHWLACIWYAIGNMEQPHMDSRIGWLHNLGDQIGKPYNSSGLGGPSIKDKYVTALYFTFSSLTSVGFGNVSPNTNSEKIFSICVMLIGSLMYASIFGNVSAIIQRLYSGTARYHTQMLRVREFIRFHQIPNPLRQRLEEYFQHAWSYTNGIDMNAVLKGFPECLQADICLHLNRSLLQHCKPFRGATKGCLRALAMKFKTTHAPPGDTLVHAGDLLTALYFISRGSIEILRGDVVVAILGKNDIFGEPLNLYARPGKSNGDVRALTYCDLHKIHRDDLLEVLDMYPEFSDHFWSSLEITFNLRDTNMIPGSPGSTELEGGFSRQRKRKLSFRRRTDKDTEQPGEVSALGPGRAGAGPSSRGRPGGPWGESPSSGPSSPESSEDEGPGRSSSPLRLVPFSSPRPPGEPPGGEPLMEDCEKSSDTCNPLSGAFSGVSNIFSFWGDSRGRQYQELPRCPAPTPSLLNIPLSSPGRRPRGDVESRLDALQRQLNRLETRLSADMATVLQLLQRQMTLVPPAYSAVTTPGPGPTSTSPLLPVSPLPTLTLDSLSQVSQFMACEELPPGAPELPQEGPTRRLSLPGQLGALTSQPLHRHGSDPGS
# Description: as §2
# [12] = Survivability of treated subjects; assay type: in vivo; details: compared to subjects treated with other BTK inhibitors (e.g., ibrutinib, A419259)
# [13] = system: p-HCK and p-BTK in WM patients LPCs; experiment: p-HCK and p-BTK by PhosFlow in MYD88 mutated WM patient bone marrow tumor cells; assay type: cell-based, human
# Description: (§3) The anti-tumor activity of Compound (I) was also assessed using primary MYD88 mutated bone marrow derived CD19-positive lymphoplasmacytic cells (LPCs) from WM patients, and compared effects against healthy donor CD19+ B-cells.
# [14] = Murine pharmacokinetics (intravenous and oral); assay type: in vivo; details: mouse, serum; for bioavailability: read-out: bioavailability (% F)
# [15] = system: Salmonella typhimurium tester strains (TA98, TA100, TA1535 and TA1537); experiment: Ames genotoxicity testing; details: up to 50 μM with and without metabolic activation by rat liver S9 fraction
# [16] = system: vector, HCK^WT or HCK^T333M transduced TMD8 ABC DLBCL cells; experiment: HCK^T333M gatekeeper mutant rescue, dose-response 72 hours; assay type: cell-based
# Description: Dose-responses of vector only or HCK^WT or HCK^T333M transduced […] cells following the treatment Compound (I) for 72 hours (FIG. 7A).
# [17] = system: healthy donor CD19+ B-cells; experiment: Apoptosis of healthy donor B-cells; assay type: cell-based, human
# Description: as §3
# [18] = Liver microsome stability; assay type: in vitro ADME; details: mouse, liver microsomes
# BTK [19] = target: T3, BTK (Homo sapiens, UniProt Q06187); experiment: ATP-competitive pulldown assay (desthiobiotin-ATP probe, western blot) in live BCWM.1 and TMD8 cells; assay type: cell-based; details: live cell pre-treatment
# T3 sequence (Q06187 whole entry): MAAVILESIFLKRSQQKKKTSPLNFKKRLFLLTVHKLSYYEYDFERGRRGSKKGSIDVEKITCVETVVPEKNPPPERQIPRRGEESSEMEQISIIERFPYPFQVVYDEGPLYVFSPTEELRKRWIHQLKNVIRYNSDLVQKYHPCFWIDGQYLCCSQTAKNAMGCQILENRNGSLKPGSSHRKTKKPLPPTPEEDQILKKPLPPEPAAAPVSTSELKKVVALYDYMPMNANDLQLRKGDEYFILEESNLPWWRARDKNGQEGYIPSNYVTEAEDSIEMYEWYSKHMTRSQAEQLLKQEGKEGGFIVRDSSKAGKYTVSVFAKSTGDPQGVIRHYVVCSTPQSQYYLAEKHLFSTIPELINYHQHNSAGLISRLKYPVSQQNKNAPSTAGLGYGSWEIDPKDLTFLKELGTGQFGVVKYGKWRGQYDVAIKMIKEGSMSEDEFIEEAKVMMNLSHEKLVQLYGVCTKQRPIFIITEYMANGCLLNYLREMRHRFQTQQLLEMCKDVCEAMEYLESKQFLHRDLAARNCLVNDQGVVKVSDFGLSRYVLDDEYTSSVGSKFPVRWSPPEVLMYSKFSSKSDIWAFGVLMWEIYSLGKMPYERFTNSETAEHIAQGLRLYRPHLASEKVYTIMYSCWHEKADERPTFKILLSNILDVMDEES
# LYN [20] = target: T2, LYN; experiment: Enzymatic assay (SelectScreen, Life Technologies); assay type: biochemical
# [21] = system: MYD88 mutated WM and ABC DLBCL cell lines versus MYD88 wild-type GCB DLBCL, Burkitt's Lymphoma, and multiple myeloma cell lines; experiment: CellTiter-Glo cell viability, MYD88 mutated versus wild-type cell lines; assay type: cell-based
# [22] = system: primary MYD88 mutated bone marrow derived CD19-positive lymphoplasmacytic cells (LPCs) from WM patients; experiment: Apoptosis of primary WM patient lymphoplasmacytic cells; assay type: cell-based, human
# Description: as §3
# BTK [23] = target: T3, BTK; experiment: Enzymatic / biochemical kinase assay (SelectScreen, Life Technologies); design: purchased Life Technologies (SelectScreen)
# [24] = system: HCK activation (pHCK^Y411); experiment: pHCK by PhosFlow in HCK^WT or HCK^T333M transduced BCWM.1 cells; assay type: cell-based; details: HCK^T333M but not HCK^WT expressing BCWM.1 cells
# Description: as §1
# HCK [25] = target: T1, HCK; experiment: Enzymatic / biochemical kinase assay (SelectScreen, Life Technologies)
# [26] = Liver microsome stability; assay type: in vitro ADME; details: dog, liver microsomes; dogs; read-out: half-life t1/2 with purified microsomes
# [27] = Pharmacokinetics of A419259 under oral administration
# [28] = HCK^T333M expressing BCWM.1 cells
# [29] = read-out: T1/2 in liver microsomes
smiles,measurement,setting,value
"CN1CCN(C2CCC(n3nc(-c4ccc(Oc5ccccc5)cc4)c4c(N)ncnc43)CC2)CC1 (stereo not shown) [Compound (I), 1-((1r,4r)-4-(4-methylpiperazin-1-yl)cyclohexyl)-3-(4-phenoxyphenyl)-1H-pyrazolo[3,4-d]pyrimidin-4-amine]",inhibition of HCK phosphorylation,[1],robust inhibition
same,"attenuation of pBTK, pAKT, pERK1/2, and pSYK",[2]; [28],abrogated
same,pBTK,[2]; [28],continued to show reduced activity
same,"expression of pBTK, pAKT, pERK1/2, and p-SYK",[2]; HCK^WT expressing BCWM.1 cells,"blocked the expression of pBTK, pAKT, pERK1/2, and p-SYK in a dose dependent manner"
same,BTK and ERK 1/2 phosphorylation,[3],effectively blocked
same,"activity against SRC-family kinases (HCK, BLK, LYN, FRK), Tec-family kinases (BTK), ACK (TNK2), CSK, ErbB2, and ABL",[4],nanomolar activity
same,target engagement (block of kinase binding to desthiobiotin-ATP probe),[4]; TMD8 ABC DLBCL cells treated at 1. μM,strongly targeted both HCK and BTK
same,tolerability,[5],well-tolerated
same,half-life,"[6]; rats, read-out: half-life t1/2 with purified microsomes",> 2 h
same,half-life,[6]; [29],≥ 1 h
same,engagement of / binding to HCK,HCK [7],robust engagement; also recorded: very strongly binds
same,S(1) score,panel of 464 kinases,0.07
same,S(10) score,panel of 464 kinases,0.13
same,S10,panel of 464 kinases; panel of 464 kinases,0.07
same,S35,panel of 464 kinases; panel of 464 kinases,0.13
same,targeted kinases,panel of 464 kinases; panel of 464 kinases,"mainly limited to the Src-family kinases HCK, BLK, LYN, and FRK, and the Tec-family kinase BTK"
same,inhibition,CYP2C19,0.8%
same,inhibition,CYP2D6,24.9%
same,inhibition,CYP2C8,-3.8%
same,inhibition,CYP2B6,64.5%
same,inhibition,CYP2C9,-10.9%
same,inhibition,CYP1A,-27.9%
same,fraction unbound,"Plasma protein binding; dog, dogs",0.05
same,fraction unbound,"Plasma protein binding; human, humans",0.043
same,fraction unbound,"Plasma protein binding; mouse, mice",0.023
same,fraction unbound,"Plasma protein binding; rat, rats",0.045
same,effect of HCK^T333M on compound induced cell death,[8],rescues Compound (I) induced cell death
same,half-life,"[9]; humans, read-out: half-life t1/2 with purified microsomes",0.825 h
same,half-life,[9]; [29],≥ 1 h
same,binding to LYN,LYN [10],very strongly binds
same,increase in resistance by expression of HCK^T333M,[11],more than 20 fold
same,hERG cardiotoxicity (patch clamp),hERG,negative
same,survivability,[12],increased survivability
same,p-HCK and p-BTK levels,[13],reduction of p-HCK(T209) and p-BTK^Y223
same,clearance,"[14]; intravenous, 2 mg/kg, read-out: in vivo clearance rate",1.04 L/h/kg
same,bioavailability,"[14]; po, 10 mg/kg, 10 mg/kg oral",49%
same,bioavailability,"[14]; po, 25 mg/kg, 25 mg/kg oral",55%
same,AUC,"[14]; po, orally at 10 mg/kg",5.2 µM·h
same,half-life,"[14]; po, orally at 10 mg/kg and 25 mg/kg, read-out: T1/2",15.1 to 16.9 h
same,AUC,"[14]; po, orally at 25 mg/kg",11.4 µM·h
same,half-life,"[14]; 10 mg/kg oral, read-out: serum half-life (converted)",15.1 h
same,half-life,"[14]; 25 mg/kg oral, read-out: serum half-life (converted)",16.9 h
same,half-life,"[14]; intravenous administration (2 mg/kg), read-out: serum half-life (converted)",11.5 h
same,Ames genotoxicity,[15],negative
same,effect of HCK^T333M on compound induced cell death,[16],rescues Compound (I) induced cell death
same,apoptotic effect,[17],no apoptotic effect
same,half-life,"[18]; mice, read-out: half-life t1/2 with purified microsomes",1.77 h
same,half-life,[18]; [29],≥ 1 h
same,BTK inhibition / binding,BTK [19],effectively binds
same,IC50s (in words),LYN [20],single-digit nanomolar
same,anti-tumor activity,[21],targeted anti-tumor activity
same,apoptotic effect,[22],robust apoptosis
same,IC50s (in words),BTK [23],single-digit nanomolar
same,HCK activation in the presence of compound,[24],persistent activation of HCK
same,IC50s (in words),HCK [25],single-digit nanomolar
same,half-life,[26],1 h
"CN1CCN([C@H]2CC[C@H](n3nc(-c4ccc(Oc5ccccc5)cc4)c4c(N)ncnc43)CC2)CC1 [Compound (I), 1-((1r,4r)-4-(4-methylpiperazin-1-yl)cyclohexyl)-3-(4-phenoxyphenyl)-1H-pyrazolo[3,4-d]pyrimidin-4-amine]",IC50,BTK [23],0.915 nM
same,IC50,HCK [25],< 0.495 nM
"CN1CCN(C2CCC(n3cc(-c4ccc(Oc5ccccc5)cc4)c4c(N)ncnc43)CC2)CC1 (stereo not shown) [Compound A419259, reference compound]",Tui2,[27],176.0 h
same,S(1) score,panel of 464 kinases,0.07
same,S(10) score,panel of 464 kinases,0.13
